Source: US5663174A, “Aromatic sulfonamide derivatives, their use as enzyme inhibitors and pharmaceutical compositions containing them” (Pharno-Wedropharm GmbH, priority 1997, dated 1997)
Like-named read-outs stand apart in the source and are kept apart here.

Target: T1, bovine pancreatic PLA2 (Bos taurus, UniProt P00593)
T1 construct: from tissue; host or cells: bovine pancreas
Assay: Phospholipase A2 (PLA2) activity, enzyme assay
Format: biochemical
Protocol: Phospholipase A2 (PLA2) activity was measured using bovine pancreatic PLA2 as the enzyme and a sonicated dispersion of 1-stearoyl-2-[C^14 ]-arachidonyl-phosphatidylcholine (56 mCi/mmol) as the substrate in the following manner: 60 ng bovine pancreatic PLA2 was mixed and incubated with buffer and inhibitors (100 mM Tris, pH 8; 100 mM CaCl2; 20 mM EDTA, pH 8) at 37° C. for 10 min. to allow interaction between the enzyme and the drugs. The substrate (38 nCi) in buffer and 0.3% cholate was added to initiate the reaction which continued for 20 min. at 37° C. The total reaction volume was 0.1 ml. The reaction was stopped by adding 0.1 ml of an ice cold EtOH/HOAc 98:2 mixture. Released arachidonic acid was separated from the unreacted substrate via thin layer chromatography on silica gel (solvent system CHCl3 /MeOH/H2 O 14:6:1). The radioactivity of the two spots was quantified using a bioscanner.
Inhibitors were dissolved in buffer^13 and tested in duplicate within each experiment, and each inhibitor was tested in at least two experiments. When necessary, inhibitors were dissolved in DMSO^14. The % inhibition at a given concentration was combined for several experiments and the IC50 determined from a semilog plot of % inhibition vs concentration. Under the condition described the rate of hydrolysis was 20-25% of the substrate being hydrolyzed in absence of inhibitors.
^13 0.01 ml inhibitor solution were used in these experiments.
^14 0.005 ml inhibitor solution were used in these experiments (=5 vol %).

[1] = Table 20, from semilog plot of % inhibition vs concentration, substrate 1-stearoyl-2-[C^14]-arachidonyl-phosphatidylcholine, 37° C., pH 8, 20 min, read-out: IC50
[2] = Table 20, from semilog plot of % inhibition vs concentration, substrate 1-stearoyl-2-[C^14]-arachidonyl-phosphatidylcholine, 37° C., pH 8, 20 min

T1 sequence (P00593 23-145): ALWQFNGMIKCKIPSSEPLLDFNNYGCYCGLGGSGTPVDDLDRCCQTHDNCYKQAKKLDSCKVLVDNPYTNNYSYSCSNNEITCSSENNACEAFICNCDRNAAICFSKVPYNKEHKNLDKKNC

SMILES | IC50 [1] [µM] | also measured
CC(C)[C@H](NS(=O)(=O)c1cccc2cnccc12)C(=O)Nc1ccc(-c2ccccc2)cc1 [Compound 37, N-(5-isoquinolinesulfonyl)-L-valine biphenylamide] | 470 | 
O=C([C@H](Cc1ccccc1)NS(=O)(=O)c1ccccc1)N1CCNCC1 [Compound 1, N-benzenesulfonyl-L-phenylalanine piperazineamide] |  | IC50 [2]: promotion
O=C(Nc1ccc(-c2ccccc2)cc1)[C@H]1CCCN1S(=O)(=O)c1cccc2cnccc12 [Compound 40, N-(5-isoquinolinesulfonyl)-D-proline biphenylamide] | 435 | 
CC(C)[C@H](NS(=O)(=O)c1cccc2c(Cl)cccc12)C(=O)N1CCNCC1 [Compound 22, N-(5-chloro-1-naphthalenesulfonyl)-L-valine piperazineamide] | 310 | 
NCCCCCCNC(=O)[C@H](Cc1ccccc1)NS(=O)(=O)c1cccc2cnccc12 [Compound 35, N-(5-isoquinolinesulfonyl)-L-phenylalanine-1,6-diaminohexaneamide] | 263 | 
C[C@H](NS(=O)(=O)c1ccccc1)C(=O)N1CCNCC1 [Compound 2, N-benzenesulfonyl-L-alanine piperazineamide] |  | IC50 [2]: promotion
O=C(Nc1ccc(-c2ccccc2)cc1)[C@H](Cc1c[nH]c2ccccc12)NS(=O)(=O)c1ccccc1 [Compound 11, N-benzenesulfonyl-L-tryptophane biphenylamide] | 570 | 
O=S(=O)(Nc1ccc(-c2ccccc2)cc1)c1cccc2cnccc12 [Compound 41, N-biphenyl-5-isoquinolinesulfonamide] |  | IC50 [2]: promotion; inhibition at 10 µM (at 10 μM): 31.6%; inhibition at 100 µM: 28.3%
O=C(Nc1ccc(-c2ccccc2)cc1)[C@@H]1CCCN1S(=O)(=O)c1cccc2cnccc12 [Compound 38, N-(5-isoquinolinesulfonyl)-L-proline biphenylamide] | 130 | 
O=C([C@H](Cc1ccccc1)NS(=O)(=O)c1cccc2cnccc12)N1CCNCC1 [Compound 31, N-(5-isoquinolinesulfonyl)-L-phenylalanine piperazineamide] |  | IC50 [2]: promotion; inhibition at 100 µM: 70.1%; inhibition at 300 µM (at 300 μM): 54%
O=C([C@H](Cc1ccccc1)NS(=O)(=O)c1cccc2c(Cl)cccc12)N1CCNCC1 [Compound 21, N-(5-chloro-1-naphthalenesulfonyl)-L-phenylalanine piperazineamide] | 600 | 
O=C(Nc1ccc(-c2ccccc2)cc1)[C@H](Cc1ccccc1)NS(=O)(=O)c1ccccc1 [Compound 7, N-benzenesulfonyl-L-phenylalanine biphenylamide] | 310 | 
NCCCCCCNC(=O)[C@H](Cc1ccccc1)NS(=O)(=O)c1cccc2c(Cl)cccc12 [Compound 25, N-(5-chloro-1-naphthalenesulfonyl)-L-phenylalanine-1,6-diaminohexaneamide] |  | IC50 (text example, read-out: IC50 (concentration which would bring about an inhibition of 50%)): 67 µM
O=S(=O)(Nc1ccccc1)c1cccc2c(Cl)cccc12 [compound 43, reference compound] | 190 | 
O=S(=O)(Nc1ccc(-c2ccccc2)cc1)c1cccc2c(Cl)cccc12 [Compound 30, N-biphenyl-5-chloro-1-naphthalenesulfonamide] | 275 | 
O=C(Nc1ccc(-c2ccccc2)cc1)[C@@H]1CCCN1S(=O)(=O)c1ccccc1 [Compound 10, N-benzenesulfonyl-L-proline biphenylamide] | 520 | 
